Measured values published in article PMC9228412, “Synthesis and Activity of Triazole-Adenosine Analogs as Protein Arginine Methyltransferase 5 Inhibitors” (Molecules, 2022).

Assays:
[1] = target: T1, PRMT5 (Homo sapiens, UniProt O14744); assay: scintillation proximity assay (SPA) of PRMT5 methyltransferase activity; type: biochemical; conditions: 0.5 μM H4(1–20)K20biotin, 0.5 μM 3H-SAM; for remaining activity at 10 µM: 0.5 h, remaining activity of the enzyme, single point SPA test, inhibitor 10 μM, read-out: Relative Activity of PRMT5 at 10 μM; for IC50: SPA, concentration-dependent, read-out: IC50 PRMT5 (converted)
T1 construct: His-tag; made in house; host or cells: Sf9 insect cells (Bac-to-Bac baculovirus)
Procedure: (§1) The methyltransferase activities of PRMT5 and PRMT1 in the absence and presence of the synthetic inhibitors were measured by using the scintillation proximity assay (SPA) protocol (Table 1). In the initial test, the inhibitor concentration was set at 10 μM. H4(1–20)K20biotin [Ac-[…](biotin)-NH2] was used as the peptide substrate, at a final concentration of 0.5 μM. ^3H-SAM was used as the methyl donor at 0.5 μM. SAH was used as a control inhibitor. […] Analysis of the biochemical activity results against PRMT5 disclosed a few interesting structure–activity relationship (SAR) trends. […] If the hydroxyl group of 3 was changed to an amine (6), the potency was improved; however, the selectivity was abolished. Generally, compounds that contained positive charges (6, 20, 21, 22, 24) near the triazole ring had further improved potencies.
Human recombinant His-tag PRMT5 was co-expressed with His-tag MEP50 using the Bac-to-Bac baculovirus expression system (Invitrogen, Life Technologies, Carlsbad, CA, USA) as previously described. Briefly, pFB-LIC-Bse-PRMT5 and pFB-LIC-Bse-MEP50 were heat shock transformed in the DH10Bac E. coli to obtain the recombinant bacmids, and the bacmids were extracted using the PureLink HiPure Plasmid Miniprep Kit (Invitrogen, Thermo Scientific, Carlsbad, CA, USA). The purity and concentration of the plasmid were measured by a Nanodrop. Sf9 cells were cultured in Sf-900 II SFM medium until the cell density reached 1.5 × 10^6 cells/mL and cell viability was more than 95%. Cells were plated in a 6-well tissue culture plate at a density of 4 × 10^5 cells/mL per well. In total, 2 µg of PRMT5 and MEP50 recombinant bacmid were transfected into each well of cells. After 5 h of transfection, the transfection medium was replaced by 2 mL of Sf-900 II SFM + 100 U P/S per well. The medium was collected and centrifuged at 1000 rpm for 5 min to obtain the supernatant P1 viral stock after 7 days of inoculation at 27.5 °C. To obtain a higher titer of viral stock, P1 viral stock was amplified in a 6-well tissue culture plate containing 2 × 10^6 cells per well. In total, 0.1 MOI of P1 virus stock was added into each well. After 7 days of incubation at 27.5 °C, the cell medium was centrifuged at 1000 rpm for 5 min to obtain the P2 viral stock in the supernatant. The Baculovirus plaque assay was performed to determine the viral titer concentration; the target concentration range was 1 × 10^7–1 × 10^8 IFU/mL.
For the expression of PRMT5 and MEP50, Sf9 insect cells were cultured in suspension at 27.5 °C at a speed of 130 rpm in Expression Systems ESF 921 medium with 100 U P/S. In total, 200 mL of Sf9 cell culture was inoculated with PRMT5 and MEP50 P2 viral stocks when the cell density reached 1.5 × 10^6 cells/mL. After incubation for 72 h at 27.5 °C, the cells were harvested and centrifuged. PRMT5 and MEP50 protein were collected in the cell pellet for further purification. Cell pellets were disrupted twice at 100 psi in 25 mL of cell lysis buffer (50 mM Tris pH 8, 300 mM NaCl, 10% glycerol, 0.1% Triton X-100, 1 mM PMSF). Before the Ni-NTA purification, 10 mL of Ni-NTA resin (EMD Millipore, Burlington, MA, USA) was loaded into a 50 mL column and equilibrated with equilibration buffer (50 mM Tris pH 8, 250 mM NaCl, 30 mM Imidazole, 10% glycerol, 1 mM TCEP, 1 mM PMSF). After 60 min of cell lysate centrifugation at 4 °C at 18,000 rpm, the cell lysate supernatant was incubated with the equilibrated nickel resin. The resin was washed with equilibration buffer and protein was eluted with elution buffer (50 mM Tris pH 8, 250 mM NaCl, 300 mM Imidazole, 10% glycerol, 1 mM TCEP, 1 mM PMSF). For the dialysis of protein, elution samples were loaded into a 10,000 MWCO SnakeSkin (Thermo Scientific, Waltham, MA, USA) dialysis bag in the storage buffer (50 mM Tris pH 8, 250 mM NaCl, 10% glycerol, 1 mM TCEP). […]

[2] = target: PRMT1 (Homo sapiens, UniProt Q99873); assay: scintillation proximity assay (SPA) of PRMT1 methyltransferase activity; type: biochemical; conditions: for remaining activity at 10 µM: 0.5 h, remaining activity of the enzyme, single point SPA test, inhibitor 10 μM, read-out: Relative Activity of PRMT1 at 10 μM; for IC50: SPA, concentration-dependent, read-out: IC50 PRMT1 (converted)
Procedure: as §1
Inhibitor was dissolved in water to create a 10 mM stock concentration. This was then diluted in buffer (50 mM HEPES pH 8, 10 mM NaCl, 0.5 mM EDTA, 0.5 mM DTT in H2O) to create a series of working concentrations centered around an anticipated IC50. [H]^3-SAM and substrate were diluted together in buffer to working concentrations of […], respectively. To each well in a 96-well plate, 6 μL of the inhibitor solution was added, with negative and positive controls receiving buffer. In total, 6 μL of the [H]^3-SAM/substrate solution was then added to each well. The enzyme was then diluted in buffer to a working concentration of 0.83 μM, and 18 μL was added to each well, with negative controls receiving 18 μL of buffer. The plate was covered, and the reaction was allowed to run for 30 min and was then quenched with the addition of 30 μL of 100% iPrOH followed by 60 μL of 50% iPrOH in H2O. In total, 10 μL of 20 mg/mL streptavidin-coated scintillant beads were added and the plate was read using a MicroBeta (Perkin Elmer, Waltham, MA, USA) plate reader. The CPM counts in the absence of an inhibitor for each data set were considered as 100% activity. In the absence of the enzyme and inhibitor, the CPM counts in each data set were defined as background (0%).

T1 sequence (O14744 whole entry): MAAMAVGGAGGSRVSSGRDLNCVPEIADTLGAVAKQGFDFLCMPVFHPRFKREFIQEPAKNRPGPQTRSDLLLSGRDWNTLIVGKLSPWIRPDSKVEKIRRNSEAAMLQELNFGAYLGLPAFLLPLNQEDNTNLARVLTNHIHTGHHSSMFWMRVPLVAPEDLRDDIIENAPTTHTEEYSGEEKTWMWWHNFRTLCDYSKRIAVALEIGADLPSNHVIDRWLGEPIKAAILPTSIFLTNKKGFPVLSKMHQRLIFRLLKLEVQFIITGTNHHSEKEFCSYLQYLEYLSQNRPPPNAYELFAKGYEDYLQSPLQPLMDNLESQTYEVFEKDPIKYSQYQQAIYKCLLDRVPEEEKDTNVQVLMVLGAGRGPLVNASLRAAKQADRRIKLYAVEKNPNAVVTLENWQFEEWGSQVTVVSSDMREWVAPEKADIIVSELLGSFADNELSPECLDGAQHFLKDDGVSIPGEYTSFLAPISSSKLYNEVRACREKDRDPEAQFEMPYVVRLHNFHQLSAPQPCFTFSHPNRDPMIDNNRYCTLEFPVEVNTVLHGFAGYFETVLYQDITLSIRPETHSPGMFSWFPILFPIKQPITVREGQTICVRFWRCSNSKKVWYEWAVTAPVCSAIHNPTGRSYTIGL
T1 sequence (Q9BQA1 whole entry partner): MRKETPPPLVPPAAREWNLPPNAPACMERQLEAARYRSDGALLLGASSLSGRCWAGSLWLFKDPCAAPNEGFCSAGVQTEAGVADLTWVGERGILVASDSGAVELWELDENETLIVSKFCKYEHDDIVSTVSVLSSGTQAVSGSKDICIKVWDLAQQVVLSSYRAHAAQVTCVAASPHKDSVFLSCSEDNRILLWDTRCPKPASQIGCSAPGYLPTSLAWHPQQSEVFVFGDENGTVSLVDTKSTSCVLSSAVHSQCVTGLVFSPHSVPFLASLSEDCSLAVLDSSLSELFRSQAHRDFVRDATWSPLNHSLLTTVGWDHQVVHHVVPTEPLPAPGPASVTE
Sequence of PRMT1 (Q99873 whole entry, species assumed): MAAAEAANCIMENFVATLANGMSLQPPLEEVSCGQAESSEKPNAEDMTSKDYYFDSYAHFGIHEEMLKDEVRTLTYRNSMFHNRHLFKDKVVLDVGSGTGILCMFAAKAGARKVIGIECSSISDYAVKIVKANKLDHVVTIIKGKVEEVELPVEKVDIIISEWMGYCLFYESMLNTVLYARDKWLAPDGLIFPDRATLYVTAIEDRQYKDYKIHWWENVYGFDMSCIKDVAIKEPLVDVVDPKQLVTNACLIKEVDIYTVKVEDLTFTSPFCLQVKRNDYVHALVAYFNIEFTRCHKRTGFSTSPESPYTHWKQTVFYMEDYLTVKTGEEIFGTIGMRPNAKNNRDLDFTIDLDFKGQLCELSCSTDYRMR

| remaining activity at 10 µM [1] [%] | IC50 [1] [µM] | remaining activity at 10 µM [2] [%] | IC50 [2] [µM] | Structure (SMILES) |
| --- | --- | --- | --- | --- |
|  | 4.4 |  | > 1000 | Nc1ncnc2c1ncn2[C@@H]1O[C@H](Cn2cc(CO)nn2)[C@@H](O)[C@H]1O [Compound 3, (2R,3R,4S,5R)-2-(6-amino-9H-purin-9-yl)-5-((4-(hydroxymethyl)-1H-1,2,3-triazol-1-yl)methyl)tetrahydrofuran-3,4-diol] |
| 61 ± 8 | 1.2 | 96.3 ± 8 |  | NCc1cn(C[C@H]2O[C@@H](n3cnc4c(N)ncnc43)[C@H](O)[C@@H]2O)nn1 [Compound 6, (2R,3R,4S,5R)-2-(6-amino-9H-purin-9-yl)-5-((4-(aminomethyl)-1H-1,2,3-triazol-1-yl)methyl)tetrahydrofuran-3,4-diol] |
| 71 ± 17 |  | 103 ± 5.6 |  | Nc1ncnc2c1ncn2C1OC(Cn2cc(CCC(N)c3ccccc3)nn2)C(O)C1O (stereo not shown) [Compound 10] |
| 51 ± 5.7 | 2.6 | 90.1 ± 5.7 |  | Nc1ncnc2c1ncn2[C@@H]1O[C@H](Cn2cc(-c3ccccc3)nn2)[C@@H](O)[C@H]1O [Compound 14, (2R,3R,4S,5R)-2-(6-amino-9H-purin-9-yl)-5-((4-phenyl-1H-1,2,3-triazol-1-yl)methyl)tetrahydrofuran-3,4-diol] |
| 94.2 ± 12 | > 40 | 123 ± 4.4 |  | Nc1ncnc2c1ncn2[C@@H]1O[C@H](Cn2cc(CNC(=O)c3ccccc3)nn2)[C@@H](O)[C@H]1O [Compound 15, N-((1-(((2R,3S,4R,5R)-5-(6-amino-9H-purin-9-yl)-3,4-dihydroxytetrahydrofuran-2-yl)methyl)-1H-1,2,3-triazol-4-yl)methyl)benzamide] |
| 80 ± 9.5 |  | 101 ± 10 |  | Nc1ncnc2c1ncn2[C@@H]1O[C@H](Cn2cc(CNC(=O)OCc3ccccc3)nn2)[C@@H](O)[C@H]1O [Compound 16] |

Further lines, the compound ahead of its results:

| Structure (SMILES) | remaining activity at 10 µM [1] [%] | IC50 [1] [µM] | remaining activity at 10 µM [2] [%] | IC50 [2] [µM] |
| --- | --- | --- | --- | --- |
| [N-]=[N+]=NC[C@H]1O[C@@H](n2cnc3c(N)ncnc32)[C@H](O)[C@@H]1O [Compound 1, 5′-azido-5′-deoxyadenosine] | 48 ± 9.7 | 3 | 97.5 ± 7.6 | > 1000 |
| Nc1ncnc2c1ncn2[C@@H]1O[C@H](Cn2ccnn2)[C@@H](O)[C@H]1O [Compound 2, (2R,3S,4R,5R)-2-((1H-1,2,3-triazol-1-yl)methyl)-5-(6-amino-9H-purin-9-yl)tetrahydrofuran-3,4-diol] |  | 27 |  | > 1000 |
| COCc1cn(C[C@H]2O[C@@H](n3cnc4c(N)ncnc43)[C@H](O)[C@@H]2O)nn1 [Compound 4, (2R,3R,4S,5R)-2-(6-amino-9H-purin-9-yl)-5-((4-(methoxymethyl)-1H-1,2,3-triazol-1-yl)methyl)tetrahydrofuran-3,4-diol] |  | 144 |  | > 1000 |
| Nc1ncnc2c1ncn2[C@@H]1O[C@H](Cn2cc(CCO)nn2)[C@@H](O)[C@H]1O [Compound 5, (2R,3R,4S,5R)-2-(6-amino-9H-purin-9-yl)-5-((4-(2-hydroxyethyl)-1H-1,2,3-triazol-1-yl)methyl)tetrahydrofuran-3,4-diol] |  | 195 |  | > 1000 |
| C[Si](C)(C)c1cn(C[C@H]2O[C@@H](n3cnc4c(N)ncnc43)[C@H](O)[C@@H]2O)nn1 [Compound 7, (2R,3R,4S,5R)-2-(6-amino-9H-purin-9-yl)-5-((4-(trimethylsilyl)-1H-1,2,3-triazol-1-yl)methyl)tetrahydrofuran-3,4-diol] |  | 8.3 |  | > 1000 |
| CC(C)(C)c1cn(C[C@H]2O[C@@H](n3cnc4c(N)ncnc43)[C@H](O)[C@@H]2O)nn1 [Compound 8, (2R,3R,4S,5R)-2-(6-amino-9H-purin-9-yl)-5-((4-(tert-butyl)-1H-1,2,3-triazol-1-yl)methyl)tetrahydrofuran-3,4-diol] |  | 7.7 |  | > 1000 |
| C[Si](C)(C)Cc1cn(C[C@H]2O[C@@H](n3cnc4c(N)ncnc43)[C@H](O)[C@@H]2O)nn1 [Compound 9, (2R,3R,4S,5R)-2-(6-amino-9H-purin-9-yl)-5-((4-((trimethylsilyl)methyl)-1H-1,2,3-triazol-1-yl)methyl)tetrahydrofuran-3,4-diol] |  | > 200 |  | > 1000 |
| Nc1ncnc2c1ncn2[C@@H]1O[C@H](Cn2cc(C(=O)O)nn2)[C@@H](O)[C@H]1O [Compound 11, 1-(((2R,3S,4R,5R)-5-(6-amino-9H-purin-9-yl)-3,4-dihydroxytetrahydrofuran-2-yl)methyl)-1H-1,2,3-triazole-4-carboxylic acid] | 74 ± 11 |  | 96.9 ± 2.2 |  |
| Nc1ncnc2c1ncn2[C@@H]1O[C@H](Cn2cc(CCCC(=O)O)nn2)[C@@H](O)[C@H]1O [Compound 12, 4-(1-(((2R,3S,4R,5R)-5-(6-amino-9H-purin-9-yl)-3,4-dihydroxytetrahydrofuran-2-yl)methyl)-1H-1,2,3-triazol-4-yl)butanoic acid] | 73 ± 12 | > 400 | 99.3 ± 6.7 |  |
| Nc1ncnc2c1ncn2[C@@H]1O[C@H](Cn2cc(CCCCC(=O)O)nn2)[C@@H](O)[C@H]1O [Compound 13, 5-(1-(((2R,3S,4R,5R)-5-(6-amino-9H-purin-9-yl)-3,4-dihydroxytetrahydrofuran-2-yl)methyl)-1H-1,2,3-triazol-4-yl)pentanoic acid] | 57 ± 4.4 | > 40 | 92.7 ± 10 |  |
| CCC(=O)Oc1ccc(CCc2cn(C[C@H]3O[C@@H](n4cnc5c(N)ncnc54)[C@H](O)[C@@H]3O)nn2)cc1OC(=O)C(C)C [Compound 17] | 56 ± 10 |  | 91 ± 11 |  |
| Nc1ncnc2c1ncn2[C@@H]1O[C@H](Cn2cc(C[C@H](NC(=O)OCC3c4ccccc4-c4ccccc43)C(=O)O)nn2)[C@@H](O)[C@H]1O [Compound 18, (S)-2-((((9H-fluoren-9-yl)methoxy)carbonyl)amino)-3-(1-(((2R,3S,4R,5R)-5-(6-amino-9H-purin-9-yl)-3,4-dihydroxytetrahydrofuran-2-yl)methyl)-1H-1,2,3-triazol-4-yl)propanoic acid] | 56 ± 6.4 |  | 91.2 ± 4.7 |  |
